Experimental findings from patent publication US20250059205A1, “Heterocyclic Compounds and Methods of Use” (AMGEN INC., priority 2021, published 2025) are described below.

A value given as a limit tells only on which side of the number the result lay.

The target of experiment [1] is His-tagged KRAS G12D protein (Homo sapiens, UniProt P01116, G12D). Put plainly: KRAS G12D TR-FRET Assay. The experiment is classed as binding.
Experiment [2] has as its target GDP-bound KRAS protein (aa 1-169), containing both G12D and C118A amino acid substitutions (Homo sapiens, UniProt P01116, C118A/G12D). In words: KRAS G12D Coupled Nucleotide Exchange Assay. Conditions: 2 h compound pre-incubation. It counts as biochemical. How it is done:
Following compound pre-incubation, purified SOS protein (aa 564-1049) and GTP (Roche 10106399001) were added to the assay wells and incubated for an additional 30 min. […] The assay plates were then read on a PerkinElmer EnVision Multilabel Reader, using AlphaScreen® technology, and data were analyzed using a 4-parameter logistic model to calculate IC50 values.

The subject of experiment [3] is Phosphorylation of ERK1/2 in AsPC-1 cells. Put plainly: Phospho-ERK1/2 MSD Assay (AsPC-1 cells). It counts as cell-based. Conditions: Homo sapiens, ASPC1, 2 h, 2 hours treatment, read-out: p-ERK (AsPC-1 cells) IC50. Put shortly: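 Read-out: MSD electrochemiluminescent detection of phosphorylated ERK1/2 in whole-cell lysates, fitted to a 4-parameter logistic curve for IC50. Prior to lysis, AsPC-1 cells (25,000 per well) received a 2 h compound dose-response at 37 °C.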

In experiment [4] the test system is Phosphorylation of ERK1/2 in A-427 cells. Put plainly: Phospho-ERK1/2 MSD Assay (A-427 cells). The experiment is classed as cell-based. Conditions: Homo sapiens, A-427, 2 h, 2 h treatment, read-out: p-ERK (A427 cells) IC50. Put shortly:
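ERK1/2 phosphorylation measured by Meso Scale whole-cell lysate assay after A-427 cells were exposed to a titration of compound for 2 h at 37 °C.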

Sequence of His-tagged KRAS G12D protein (P01116 1-188 isoform P01116-2 G12D): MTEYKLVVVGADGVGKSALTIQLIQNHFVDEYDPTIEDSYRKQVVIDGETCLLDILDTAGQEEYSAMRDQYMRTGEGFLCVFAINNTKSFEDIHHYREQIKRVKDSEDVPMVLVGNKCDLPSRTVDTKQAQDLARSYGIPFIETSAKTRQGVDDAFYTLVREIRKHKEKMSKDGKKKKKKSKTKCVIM
Sequence of GDP-bound KRAS protein (aa 1-169), containing both G12D and C118A amino acid substitutions (P01116 1-169 isoform P01116-2 G12D/C118A): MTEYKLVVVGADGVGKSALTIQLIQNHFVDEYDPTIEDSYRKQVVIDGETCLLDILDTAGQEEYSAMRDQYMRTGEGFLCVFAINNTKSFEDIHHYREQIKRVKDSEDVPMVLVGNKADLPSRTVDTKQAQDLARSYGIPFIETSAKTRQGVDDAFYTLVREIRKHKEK

For the molecule `Nc1ccc(C2CC2)c(-c2c(F)cc3c(N4C[C@@H]5CC[C@H]4CN5)nc(OC[C@@]45CCCN4C[C@H](F)C5)nc3c2F)c1` [Example 115, 3-(4-((1S,4S)-2,5-diazabicyclo[2.2.2]octan-2-yl)-6,8-difluoro-2-(((2R,7aS)-2-fluorotetrahydro-1H-pyrrolizin-7a(5H)-yl)methoxy)quinazolin-7-yl)-4-cyclopropylaniline], the IC50 (in general, the concentration that gives 50% inhibition) in experiment [1] was 32 nM; in experiment [3], 2790 nM; in experiment [4], 2740 nM. The “Avg 2 h Coupled Exchange IC50” value in experiment [2] was determined as 23 nM.
The corresponding values for `Nc1cc(-c2c(F)cc3c(N4C[C@H]5CC[C@@H](C4)N5)nc(OC[C@@]45CCCN4C[C@H](F)C5)nc3c2F)c2ccccc2c1` [Example 116, 4-(4-((1R,5S)-3,8-diazabicyclo[3.2.1]octan-3-yl)-6,8-difluoro-2-(((2R,7aS)-2-fluorotetrahydro-1H-pyrrolizin-7a(5H)-yl)methoxy)quinazolin-7-yl)naphthalen-2-amine] are 30 nM, 454 nM, 254 nM and 5 nM.
On the same counts, the results for `Nc1cc(-c2c(F)cc3c(N4C[C@@H]5CC[C@H]4CN5)nc(OC[C@@]45CCCN4C[C@H](F)C5)nc3c2F)c2ccccc2c1` [Example 117, 4-(4-((1S,4S)-2,5-diazabicyclo[2.2.2]octan-2-yl)-6,8-difluoro-2-(((2R,7aS)-2-fluorotetrahydro-1H-pyrrolizin-7a(5H)-yl)methoxy)quinazolin-7-yl)naphthalen-2-amine] are 13 nM, 899 nM, 411 nM and 7 nM.
On the same counts, the results for `Nc1cc(F)c(F)c(-c2c(F)cc3c(N4CC5CCC(C4)N5)nc(OC[C@@]45CCCN4C[C@H](F)C5)nc3c2F)c1` [Example 118] are 140 nM, 4950 nM, 6780 nM and 39 nM.
For `CCc1c(F)ccc2cc(O)cc(-c3c(F)cc4c(N5C[C@H]6CCC[C@@H](C5)N6)nc(OC[C@@]56CCCN5C[C@H](F)C6)nc4c3F)c12` [Example 119, 4-(4-((1R,5S)-3,9-diazabicyclo[3.3.1]nonan-3-yl)-6,8-difluoro-2-(((2R,7aS)-2-fluorotetrahydro-1H-pyrrolizin-7a(5H)-yl)methoxy)quinazolin-7-yl)-5-ethyl-6-fluoronaphthalen-2-ol], the IC50 in experiment [1] was found to be 5 nM; in experiment [3], 276 nM; in experiment [4], 156 nM. Moreover, in experiment [2], the “Avg 2 h Coupled Exchange IC50” value was 4 nM.
The corresponding values for `Oc1cc(-c2c(F)cc3c(N4C[C@H]5CCC[C@@H](C4)N5)nc(OC[C@@]45CCCN4C[C@H](F)C5)nc3c2F)c2ccccc2c1` [Example 120, 4-(4-((1R,5S)-3,9-diazabicyclo[3.3.1]nonan-3-yl)-6,8-difluoro-2-(((2R,7aS)-2-fluorotetrahydro-1H-pyrrolizin-7a(5H)-yl)methoxy)quinazolin-7-yl)naphthalen-2-ol] are 8 nM, 1170 nM, 1160 nM and 4 nM.
On the same counts, the results for `CCc1c(F)ccc2cc(O)cc(-c3c(F)cc4c(N5C[C@H]6C[C@@H](C5)N6)nc(OC[C@@]56CCCN5C[C@H](F)C6)nc4c3F)c12` [Example 121, 4-(4-((1R,5S)-3,6-diazabicyclo[3.1.1]heptan-3-yl)-6,8-difluoro-2-(((2R,7aS)-2-fluorotetrahydro-1H-pyrrolizin-7a(5H)-yl)methoxy)quinazolin-7-yl)-5-ethyl-6-fluoronaphthalen-2-ol] are 26 nM, 2850 nM, 5530 nM and 8 nM.
As to `Oc1ccc(-c2c(F)cc3c(N4C[C@H]5CC[C@@H](C4)N5)nc(OC[C@@]45CCCN4C[C@H](F)C5)nc3c2F)c2ccccc12` [Example 122, 4-(4-((1R,5S)-3,8-diazabicyclo[3.2.1]octan-3-yl)-6,8-difluoro-2-(((2R,7aS)-2-fluorotetrahydro-1H-pyrrolizin-7a(5H)-yl)methoxy)quinazolin-7-yl)naphthalen-1-ol], the IC50 was 5 nM in experiment [1], 282 nM in experiment [3] and 167 nM in experiment [4]. Moreover, the “Avg 2 h Coupled Exchange IC50” value in experiment [2] was 5 nM.
Turning to `CCc1c(F)ccc2cc(O)cc(-c3c(F)cc4c(N5C[C@H]6CC[C@@H](C5)N6)nc(OCC(O)(CC)CC)nc4c3F)c12` [Example 123, 4-(4-((1R,5S)-3,8-diazabicyclo[3.2.1]octan-3-yl)-2-(2-ethyl-2-hydroxybutoxy)-6,8-difluoroquinazolin-7-yl)-5-ethyl-6-fluoronaphthalen-2-ol], the figures for the IC50 in experiment [1], in experiment [3] and in experiment [4] were 12 nM, 2240 nM and 1990 nM, respectively. For the same molecule, the “Avg 2 h Coupled Exchange IC50” value in experiment [2] is 12 nM.
As for `CCC(O)(CC)COc1nc(N2C[C@H]3CC[C@@H](C2)N3)c2cc(F)c(-c3cc(O)cc4ccc(F)c(F)c34)c(F)c2n1` [Example 124, 4-(4-((1R,5S)-3,8-diazabicyclo[3.2.1]octan-3-yl)-2-(2-ethyl-2-hydroxybutoxy)-6,8-difluoroquinazolin-7-yl)-5,6-difluoronaphthalen-2-ol], the IC50 stood at 34 nM in experiment [1], 2410 nM in experiment [3] and 4320 nM in experiment [4]. In experiment [2], the “Avg 2 h Coupled Exchange IC50” value worked out at 19 nM.
Regarding `CC(O)COc1nc(N2C[C@H]3CC[C@@H](C2)N3)c2cc(F)c(-c3cc(O)cc4ccccc34)c(F)c2n1` (stereo partly drawn) [Example 125, 4-(4-((1R,5S)-3,8-diazabicyclo[3.2.1]octan-3-yl)-6,8-difluoro-2-(2-hydroxypropoxy)quinazolin-7-yl)naphthalen-2-ol], the IC50 is 114 nM in experiment [1], over 10000 nM in experiment [3] and over 10000 nM in experiment [4]. Further, the “Avg 2 h Coupled Exchange IC50” value in experiment [2] was found to be 39 nM.
Consider `CCc1c(F)ccc2cc(O)cc(-c3c(F)cc4c(N5C[C@H]6CC[C@@H](C5)N6)nc(OC[C@@H]5CCC(=O)N5)nc4c3F)c12` [Example 126, (5S)-5-(((4-((1R,5S)-3,8-diazabicyclo[3.2.1]octan-3-yl)-7-(8-ethyl-7-fluoro-3-hydroxynaphthalen-1-yl)-6,8-difluoroquinazolin-2-yl)oxy)methyl) pyrrolidin-2-one], for which the IC50 came out at 6 nM in experiment [1], 1220 nM in experiment [3] and 388 nM in experiment [4]. For the same molecule, the “Avg 2 h Coupled Exchange IC50” value in experiment [2] amounted to 2 nM.
For `CCc1c(F)ccc2cc(O)cc(-c3c(F)cc4c(N5C[C@H]6CC[C@@H](C5)N6)nc(OC[C@H]5CCC(=O)N5)nc4c3F)c12` [Example 127, (5R)-5-(((4-((1R,5S)-3,8-diazabicyclo[3.2.1]octan-3-yl)-7-(8-ethyl-7-fluoro-3-hydroxynaphthalen-1-yl)-6,8-difluoroquinazolin-2-yl)oxy)methyl) pyrrolidin-2-one], the IC50 was 12 nM in experiment [1], 7500 nM in experiment [3] and 3300 nM in experiment [4]. In addition, the “Avg 2 h Coupled Exchange IC50” value in experiment [2] came to 3 nM.
Consider `CCc1c(F)ccc2cc(O)cc(-c3c(F)cc4c(N5C[C@H]6CC[C@@H](C5)N6)nc(OCC56CCCN5CC(F)(F)C6)nc4c3F)c12` (stereo partly drawn) [Example 128, 4-(4-((1R,5S)-3,8-diazabicyclo[3.2.1]octan-3-yl)-2-((2,2-difluorotetrahydro-1H-pyrrolizin-7a(5H)-yl)methoxy)-6,8-difluoroquinazolin-7-yl)-5-ethyl-6-fluoronaphthalen-2-ol], for which the IC50 turned out to be 3 nM in experiment [1], 243 nM in experiment [3] and 308 nM in experiment [4]. For the same molecule, the “Avg 2 h Coupled Exchange IC50” value in experiment [2] was 4 nM.
In the case of `CCc1c(F)ccc2cc(O)cc(-c3c(Cl)cc4c(N5C[C@@H]6CC[C@H]5CN6)nc(OC[C@@]56CCCN5C[C@H](F)C6)nc4c3F)c12` [Example 129, 4-(4-((1S,4S)-2,5-diazabicyclo[2.2.2]octan-2-yl)-6-chloro-8-fluoro-2-(((2R,7aS)-2-fluorotetrahydro-1H-pyrrolizin-7a(5H)-yl)methoxy)quinazolin-7-yl)-5-ethyl-6-fluoronaphthalen-2-ol], the values for the IC50 in experiment [1], in experiment [3] and in experiment [4] were 4 nM, 83 nM and 29 nM, respectively. Further, the “Avg 2 h Coupled Exchange IC50” value in experiment [2] is 5 nM.
On the same counts, the results for `CCc1cccc2cc(O)cc(-c3c(Cl)cc4c(N5C[C@@H]6CC[C@H]5CN6)nc(OC[C@@]56CCCN5C[C@H](F)C6)nc4c3F)c12` [Example 130, 4-(4-((1S,4S)-2,5-diazabicyclo[2.2.2]octan-2-yl)-6-chloro-8-fluoro-2-(((2R,7aS)-2-fluorotetrahydro-1H-pyrrolizin-7a(5H)-yl)methoxy)quinazolin-7-yl)-5-ethylnaphthalen-2-ol] are 3 nM, 102 nM, 52 nM and 5 nM.
The corresponding values for `CCc1c(F)ccc2cc(O)cc(-c3ccc4c(N5C[C@H]6CC[C@@H](C5)N6)nc(OCC(C)(C)O)nc4c3F)c12` [Example 131, 4-(4-((1R,5S)-3,8-diazabicyclo[3.2.1]octan-3-yl)-8-fluoro-2-(2-hydroxy-2-methylpropoxy)quinazolin-7-yl)-5-ethyl-6-fluoronaphthalen-2-ol] are 9 nM, 926 nM, 682 nM and 5 nM.
